According to patent US20070276034A1, “Compounds, compositions and methods for the treatment of synucleinopathies” (priority 2002, published 2007):
Like-named read-outs stand apart in the source and are kept apart here.

Key:
Type in all cases: biochemical
IAPP fibrils [1] = target: T1, IAPP fibrils (Homo sapiens, UniProt P10997); experiment: Congo red binding assay with IAPP fibrils; details: 3-day incubation
T1 construct: purchased Bachem Inc
T1 sequence (P10997 34-70 limits assumed): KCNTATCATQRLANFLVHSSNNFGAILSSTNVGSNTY
Description: (§1) In the Congo red binding assay the ability of a given test compound to alter amyloid (in this case, IAPP) binding to Congo red is quantified. In this assay, IAPP and test compounds were incubated for 3 days and then vacuum filtered through a 0.2 μm filter. The amount of IAPP retained in the filter was then quantitated following staining of the filter with Congo red. After appropriate washing of the filter, any lowering of the Congo red color on the filter in the presence of the test compound (compared to the Congo red staining of the amyloid protein in the absence of the test compound) was indicative of the test compound's ability to diminish/alter the amount of aggregated and congophilic IAPP.
In the study, the ability of IAPP fibrils to bind Congo red in the absence or presence of increasing amounts of the compounds or EDTA (at IAPP:test compound weight ratios of 1:1, 1:0.1, 1:0.01 or 1:0.001) was determined.

monomeric Aβ 1-42 = target: T2, monomeric Aβ 1-42 (Homo sapiens, UniProt P05067); experiment: SDS-PAGE/Western blot of Aβ 1-42 after incubation with compounds; details: 25 μM pre-fibrillized Aβ 1-42, 37° C., 3 days, 0.2 μm filtrate, antibody 6E10
T2 construct: purchased Bachem Inc
T2 sequence (P05067 672-713): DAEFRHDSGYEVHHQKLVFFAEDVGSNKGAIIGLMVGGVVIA
Description: In this latter study, triplicate samples of pre-fibrillized Aβ 1-42 (25 μM) was incubated at 37° C. for 3 days, alone or in the presence of the compounds or EDTA. Five micrograms of each sample was then filtered through a 0.2 μm filter. Protein recovered from the filtrate was then loaded, and ran on a 10-20% Tris-Tricine SDS-PAGE, blotted to nitrocellulose and detected using an Aβ-antibody (clone 6E10; Senetek).

Aβ 1-42 fibrils [2] = target: T3, Aβ 1-42 fibrils (Homo sapiens, UniProt P05067); experiment: Circular dichroism spectroscopy of Aβ 1-42 fibrils; details: 3 days co-incubation, 25 μM Aβ 1-42 (FIG. 1, FIG. 2)
T3 construct: purchased Bachem Inc
T3 sequence (P05067 672-713): as above
Description: Circular dichroism (CD) spectroscopy is a method that can be used to determine the effects of test compounds to disrupt the secondary structure conformation of amyloid fibrils. In one study, as described in this example, circular dichroism spectroscopy was used to determine the effects of different compounds of the invention on β-sheet conformation of Aβ 1-42 fibrils. For this study, Aβ 1-42 (Bachem Inc., Torrance, Calif.) was first dissolved in a 2 mM NaOH solution, maintaining the pH of these solutions above 10. […] Aβ 1-42 was then incubated at 37° C. in the absence or presence of different compounds at an Aβ:test compound wt/wt ratios of 1:0.1, 1:1 and 1:10. After 3 days of incubation, CD spectra were recorded on a Jasco 810 spectropolarimeter (Easton, Md.). All CD spectra were collected with 0.05 cm quartz cells. Wavelength traces were scanned from 190-260 nm at 0.5 nm increments with a bandwidth of 5 nm, at a scan speed of 10 nm/minute, a response time of 32 seconds, and a data pitch of 0.5 nm. The whole system was equilibrated and continuously flushed with nitrogen at 10 ml/minute. […] Ellipticity in degrees was converted to MRE ([Q]; molar residue ellipticity) using the formula [Q]=100•[…]; where Q is the ellipticity in degrees; […]

Aβ 1-42 fibrils [3] = target: T3, Aβ 1-42 fibrils; experiment: Congo red binding assay with Aβ 1-42 fibrils; details: 3-day incubation
Description: as §1, with “a” for “a given”, “Aβ)” for “IAPP)”, “Aβ 1-42” for “IAPP”, “Aβ.” for “IAPP.”
In one study, the ability of Aβ fibrils to bind Congo red in the absence or presence of increasing amounts of the compounds or EDTA (at Aβ:test compound weight ratios of 1:1, 1:0.1, 1:0.01 or 1:0.001) was determined.

Aβ 1-42 fibrils [4] = target: T3, Aβ 1-42 fibrils; experiment: Thioflavin T fluorometry - disruption of pre-formed Aβ 1-42 Alzheimer's fibrils; details: 25 μM pre-fibrillized Aβ 1-42, 37° C., 3 days, read-out: % Inhibition Aβ (result ± S.D.)
Excerpt: In one study, Thioflavin T fluorometry was used to determine the effects of the compounds, and of EDTA (as a negative control). In this assay Thioflavin T binds specifically to fibrillar amyloid, and this binding produces a fluorescence enhancement at 485 nm that is directly proportional to the amount of amyloid fibrils formed. The higher the fluorescence, the greater the amount of amyloid fibrils formed (Naki et al., Lab. Invest. 65:104-110, 1991; Levine III, Protein Sci. 2:404-410, 1993; Amyloid: Int. J. Exp. Clin. Invest. 2:1-6, 1995).
(§2) In this study, 25 μM of pre-fibrillized Aβ 1-42 (Bachem Inc) was incubated at 37° C. for 3 days either alone, or in the presence of one of the compounds or EDTA (at Aβ:test compound weight ratios of 1:1, 1:0.1, 1:0.01 or 1:0.001). Following 3-days of co-incubation, 50 μl of each incubation mixture was transferred into a 96-well microtiter plate containing 150 μl of distilled water and 50 μl of a Thioflavin T solution (i.e. 500 mM Thioflavin T in 250 mM phosphate buffer, pH 6.8). The fluorescence was read at 485 nm (444 nm excitation wavelength) using an ELISA plate fluorometer after subtraction with buffer alone or compound alone, as blank.

IAPP fibrils [5] = target: T1, IAPP fibrils; experiment: Thioflavin T fluorometry - disruption of type 2 diabetes IAPP fibrils; details: 25 μM pre-fibrillized IAPP, 37° C., 3 days, read-out: % Inhibition IAPP (result ± S.D.)
Description: In this assay Thioflavin T binds specifically to fibrillar amyloid, and this binding produces a fluorescence enhancement at 485 nm that is directly proportional to the amount of IAPP fibrils present. The higher the fluorescence, the greater the amount of IAPP fibrils present (Naki et al, Lab. Invest. 65:104-110, 1991; Levine III, Protein Sci. 2:404-410, 1993; Amyloid: Int. J. Exp. Clin. Invest. 2:1-6, 1995).
as §2, with “IAPP” for “Aβ 1-42”, “IAPP:test” for “Aβ:test”

[6] = IAPP:test compound wt/wt ratio 1:0.001
[7] = IAPP:test compound wt/wt ratio 1:0.1
[8] = IAPP:test compound wt/wt ratio 1:1
[9] = Aβ:test compound wt/wt ratio 1:0.1
[10] = Aβ:test compound wt/wt ratio 1:1

SMILES: Oc1ccc(CCc2ccc(O)c(O)c2)cc1O [Compound 4, 1,2-bis(3,4-dihydroxyphenyl)ethane]
- % Inhibition IAPP (result ± S.D.), Congo red binding (IAPP fibrils [1]; [6]): 0.0 ± 1.05%
- % Inhibition IAPP (result ± S.D.), Congo red binding (IAPP fibrils [1]; [7]): 25.4 ± 4.68%
- % Inhibition IAPP (result ± S.D.), Congo red binding (IAPP fibrils [1]; [8]): 68.9±1.22%
- detection of Aβ 1-42 monomers (~4 kilodalton band) on Western blot (monomeric Aβ 1-42): not detected
- disruption of β-sheet structure in Aβ 1-42 fibrils (CD minima at 218 nm) (Aβ 1-42 fibrils [2]): marked disruption of β-sheet structure
- % Inhibition Aβ (result ± S.D.), Congo red binding (Aβ 1-42 fibrils [3]; Aβ:test compound wt/wt ratio 1:0.01): 16.4 ± 2.02%
- % Inhibition Aβ (result ± S.D.), Congo red binding (Aβ 1-42 fibrils [3]; [9]): 46.8 ± 1.28%
- % Inhibition Aβ (result ± S.D.), Congo red binding (Aβ 1-42 fibrils [3]; [10]): 73.0 ± 0.90%
- inhibition (Aβ 1-42 fibrils [4]; Aβ:test compound wt/wt ratio 1:0.001): 26.8 ± 4.8%
- inhibition (Aβ 1-42 fibrils [4]; [9]): 97.4 ± 0.4%
- inhibition (Aβ 1-42 fibrils [4]; [10]): 98.5 ± 0.77%
- inhibition (IAPP fibrils [5]; [6]): 17.3 ± 4.07%
- inhibition (IAPP fibrils [5]; IAPP:test compound wt/wt ratio 1:0.01): 63.2 ± 2.09%
- inhibition (IAPP fibrils [5]; [7]): 96 ± 1%
- inhibition (IAPP fibrils [5]; [8]): 99.7 ± 0.23%
